Experimental data from patent publication US8013158B2, “Crystalline forms of topotecan hydrochloride and processes for making the same” (Scinopharm Taiwan Ltd., priority 2007, dated 2011).
“Also recorded” adds a separate entry of the source.

Key:
[1] = Stability of crystalline forms held at room temperature, purity by HPLC; type: physicochemical; details: for Stability at room temperature: over twenty days at room temperature; for Stability at room temperature / Purity: HPLC
Excerpt: The stabilities of some of the crystalline forms have been tested under various conditions. HPLC was used to determine the degree of degradation of topotecan hydrochloride over time.
The samples with different forms were held at room temperature for a specific period. We tested the purities of these samples by HPLC and observed the changes of their purities.
The changes to the purities of Forms D to I are summarized as follows: […]

[2] = Experiment 2: long-time stirring in ethyl acetate at room temperature, resulting crystalline form; type: physicochemical
Experimental: Topotecan hydrochloride (4.0 g Form A or Form D) is stirred in ethyl acetate (40 mL) for a long time (40, 80, or 200 hours) at room temperature. The solids are filtered and washed with cool ethyl acetate. Dry under vacuum at room temperature.

[3] = room temperature, duration 0 hour, hydrochloride
[4] = room temperature, duration 3 days, hydrochloride
[5] = room temperature, duration 7 days, hydrochloride
[6] = room temperature, duration 20 days, hydrochloride
[7] = room temperature, duration 36 days, hydrochloride
[8] = room temperature, duration 32 days, hydrochloride

Row | Purity [1, 3] [%] | Purity [1, 4] [%] | Purity [1, 5] [%] | Purity [1, 6] [%] | Compound | other results
1 | 99.70 | 99.65 | 99.56 | 99.56 | CC[C@@]1(O)C(=O)OCc2c1cc1n(c2=O)Cc2cc3c(CN(C)C)c(O)ccc3nc2-1.Cl [Form I, topotecan hydrochloride] | Stability at room temperature [1]: substantially stable
2 | 99.32 | 99.21 | 99.17 | 99.08 | CC[C@@]1(O)C(=O)OCc2c1cc1n(c2=O)Cc2cc3c(CN(C)C)c(O)ccc3nc2-1.Cl [Form D, topotecan hydrochloride] | Stability on long time stirring compared with Form A ([2]; long time stirring in ethyl acetate): more stable than Form A; Crystalline form after stirring ([2]; stirred in ethyl acetate 40 h at room temperature, hydrochloride): Form D → D; Crystalline form after stirring ([2]; stirred in ethyl acetate 80 h at room temperature, hydrochloride): Form D → D; Crystalline form after stirring ([2]; stirred in ethyl acetate 200 h at room temperature, hydrochloride): stable; also recorded: Form D → D; Stability at room temperature compared with other Forms ([1]; room temperature): better than other Forms; Purity [1, 7]: 99.43%

Further lines, the molecule ahead of its results:

Row | Compound | Purity [1, 3] [%] | Purity [1, 4] [%] | Purity [1, 5] [%] | Purity [1, 6] [%] | other results
3 | CC[C@@]1(O)C(=O)OCc2c1cc1n(c2=O)Cc2cc3c(CN(C)C)c(O)ccc3nc2-1.Cl [Form E, topotecan hydrochloride] | 98.99 | 99.27 | 99.31 | 99.29 | Purity [1, 7]: 99.30%
4 | CC[C@@]1(O)C(=O)OCc2c1cc1n(c2=O)Cc2cc3c(CN(C)C)c(O)ccc3nc2-1.Cl [Form G, topotecan hydrochloride] | 99.11 | 99.06 | 99.00 | 98.88 | Purity [1, 8]: 99.06%
5 | CC[C@@]1(O)C(=O)OCc2c1cc1n(c2=O)Cc2cc3c(CN(C)C)c(O)ccc3nc2-1.Cl [Form F, topotecan hydrochloride] | 99.94 | 99.92 | – | – | Purity ([1]; room temperature, duration 16 days): 99.91%; Purity [1, 8]: 99.91%
6 | CC[C@@]1(O)C(=O)OCc2c1cc1n(c2=O)Cc2cc3c(CN(C)C)c(O)ccc3nc2-1.Cl [Form H, topotecan hydrochloride] | 99.92 | 99.90 | 99.92 | 99.89 | Stability at room temperature [1]: substantially stable
7 | CC[C@@]1(O)C(=O)OCc2c1cc1n(c2=O)Cc2cc3c(CN(C)C)c(O)ccc3nc2-1.Cl [Form A, topotecan monohydrochloride pentahydrate, reference compound] | – | – | – | – | Crystalline form after stirring ([2]; stirred in ethyl acetate 40 h at room temperature, listed as From A): From A → A; Crystalline form after stirring ([2]; stirred in ethyl acetate 80 h at room temperature): transform to Form E; also recorded: Form A → E; Crystalline form after stirring ([2]; stirred in ethyl acetate 200 h at room temperature): Form A → E
